We go through 14 molecules from US20090041666A1, “Ophthalmic formulations of Amyloid-beta contrast agent and methods of use thereof” (priority 2007, published 2009).

One data set deals with T1, Aβ(1-40) (Homo sapiens, UniProt P05067).
T1 construct: Aβ(1-40)
The settings on record: * = compound only partially soluble at this concentration, cited from earlier work.

The conditions of data set [1]: pH 7.4; cited from earlier work.
A further data set concerns Aβ plaques. The conditions noted are these: in vivo animal models and ex vivo human tissue (CR: Aβ aggregations); cited from earlier work.
A short description of data set [2]: Octanol-water partition coefficient. The data set is classed as physicochemical. The conditions noted are these: pH 7.4. The source says: Those skilled in the art will recognize that the hydrophobicity and hydrophilicity of a substance can be measured using the octanol-water partition coefficient (“Poct” or “Kow”), for compounds whose solubility is not altered by the pH and ionic characteristic of the solute, or LogD value, for compounds whose solubility is altered by the pH and ionic characteristic of the solute. LogD is the logarithm of the distribution coefficient, which is the ratio of the sum of the concentrations of all species of a compound in octanol to the sum of the concentrations of all species of the compound in water.
In these contexts, hydrophobicity is related to factors such as absorption, bioavailabity, hydrophobic drug-receptor interactions, metabolism, and/or toxicity. As used herein, the logPoct is synonymous to logKow, and both measurements are used interchangeably herein. Likewise, logPoct is a functionally equivalent measure to LogD; both values reflect the degree of solubility of a given compound.

Data set [3] in a line: Solubility in water and in ophthalmic carriers. The data set is classed as physicochemical. From the text:
Specifically, a mixture of approximately 85% petrolatum and 15% mineral oil is a suitable carrier. […] The petrolatum in this ophthalmic formulation can act as a carrier for a combination of dissolved and suspended Methoxy-X04, by altering the aqueous portions of the eye to accept the compound more readily by adding lipophilic material to the solution of the eye's environment and by altering the interactions of the eye with the compound by shielding it from the aqueous environment.
Hydroxypropyl methylcellulose can act in part as a carrier of microparticles in suspension for a mixture of dissolved and suspended Methoxy-X04. This effect occurs by altering the aqueous portions of the eye to enable them to accept the hydrophobic compounds more readily, by adding lipophilic material to the eye's environment and/or by altering the interactions of the compound with the eye by shielding the hydrophobic compound from the aqueous environment.
X34 (Formula II) is a ligand molecule that is derived from Congo Red by replacing the naphthalene sulfonic acids with salicylic acids and the azo linkage with an ethenyl link. […] At room temperature, X34 is a yellow powder, which fluoresces upon exposure to UV light. The logPoct for X34 is 0.42. […] Preferably, ophthalmic formulations containing X34 (or other hydrophilic compounds of Formula I) have LogD values of between 1 and 3.

The conditions of data set [4]: cited from earlier work.
For data set [5] the following is noted: injected into the tail; ex vivo 2-photon fluorescent microscopy; cited from earlier work.
Data set [6] can be described thus: Particle size after the grinding process. The data set is classed as physicochemical. The settings on record: micronized by the grinding process. Here is the method: For example, Polysorbate 80 is weighed into a polypropylene bottle, and an initial amount of sterile water for injection, USP, is weighed into the bottle. Next, Methoxy-X04 is weighed and added to the bottle. The current batch weight is determined, and the final amount of sterile water for injection to adjust the formulation to a final batch weight is added. Then, the YTZ grinding media is added to the bottle, and the bottle is placed on a roller mill for a minimum of 12 hours at a setting of 50%.
After the milling process, a polishing filter and Masterflex tubing are connected to the bottom of a Millipore housing assembly, while a high-pressure hose is attached to the top of the Millipore housing. Using a nitrogen pressure gauge, the solution is pushed thorough the housing and the polish filter. For example, the pressure used is between 3 psi and 5 psi. This grinding process yields micronized Methoxy-X04 having a mean particle size of 1.157 μm with 100% of particles smaller than 10 μm and greater than 75% of particles smaller than 5 μm. Thus, those skilled in the art will recognize that this exemplary milling process produces Methoxy-X04 particles that are suitable for either topical or parenteral formulation, without requiring the use of solvents, such as dimethyl sulfoxide, that are incompatible with use in drug formulations.

The mark [7] stands for this setting: given as Inact, tested at 10 μm.

SMILES strings stand for the structures. Where two headings read alike, the source gives them in different places.

T1 sequence (P05067 672-711 limits assumed): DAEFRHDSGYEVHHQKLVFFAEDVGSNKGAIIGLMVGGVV

One may read the Ki as a dissociation constant, usually derived from enzyme kinetics or from competition with a known ligand. With `COc1ccc(/C=C/c2ccc(/C=C/c3ccc(OC)cc3)c(O)c2)cc1` [2′-HO-X:E:B04bis(4-methoxy)], on Aβ(1-40) (setting [7]), the Ki was above 10000 nM.
Consider `COC(=O)c1cccc(/C=C/c2ccc(/C=C/c3cccc(C(=O)OC)c3)cc2)c1` [X:E:B30 dimethylester], for which the Ki on Aβ(1-40) (setting [7]) is above 10000 nM.
For `COC(=O)c1cc(/C=C/c2ccc(/C=C/c3ccc(O)c(C(=O)OC)c3)cc2)ccc1O` [X:E:B34 dimethylester], at Aβ(1-40) ([3H]CG binding to Aβ(1-40)), the Ki was 119 nM.
Turning to `Nc1c(/N=N/c2ccc(-c3ccc(/N=N/c4cc(S(=O)(=O)O)c5ccccc5c4N)cc3)cc2)cc(S(=O)(=O)O)c2ccccc12` [CR, Congo Red], in data set [1], the logPoct is recorded as 0.18 and the “octanol-water partition coefficient (Poct)” value is 0.7. In addition, the “binding to Aβ plaques / aggregations” value in the data set on Aβ plaques was “selectively binds to Aβ aggregations with high affinity”.
As to `COC(=O)c1cc(/C=C/c2ccc(/C=C/c3ccc(OC)c(C(=O)OC)c3)cc2)ccc1OC` [X:E:B34 bis(4-methoxy) dimethyl ester], the inhibitory constant (Ki) at Aβ(1-40) (setting [7]) is above 10000 nM.
With `COc1ccc(/C=C/c2ccc(/C=C/c3ccc(OC)c(C(=O)O)c3)cc2)cc1C(=O)O` [X:E:B34 bis(4-methoxy)], on Aβ(1-40) ([3H]CG binding to Aβ(1-40)), the Ki is 47 nM.
Take `Oc1ccc(/C=C/c2ccc(/C=C/c3ccc(O)cc3)cc2)cc1` [X:E:B04]: the Ki on Aβ(1-40) ([3H]CG binding to Aβ(1-40)) is 3100 nM.
Take `COc1ccc(/C=C/c2ccc(/C=C/c3ccc(OC)cc3)c(OC)c2)cc1` [2′-CH3O-X:E:B04 bis(4-methoxy)]: on Aβ(1-40) (setting [7]), the Ki was above 10000 nM.
Take `O=C(O)c1cccc(/C=C/c2ccc(/C=C/c3cccc(C(=O)O)c3)cc2)c1` [X:E:B30]: on Aβ(1-40) ([3H]CG binding to Aβ(1-40)), the Ki was 135 nM.
Regarding `O=C(O)c1cc(/N=N/c2ccc(-c3ccc(/N=N/c4ccc(O)c(C(=O)O)c4)cc3)cc2)ccc1O` [CG, Chrysamine G], in data set [2], the “Poct of CG relative to CR” value was around 100 fold. For the same molecule, in data set [1], the logPoct is listed as 1.8 and the “octanol-water partition coefficient (Poct)” value is listed as 60.
In the case of `O=C(O)c1cc(/C=C/c2ccc(/C=C/c3ccc(O)c(C(=O)O)c3)cc2)ccc1O` [X:E:B34 (X-34)], the solubility in water result in data set [3] is “moderately soluble”. In data set [3] (0.1% of X34 (1 mg active per gm of carrier)), the “state in carrier at 0.1%” value is reported as “appears to remain in solution”. Also, in data set [4], the “Oral rat LD50” value is around 15000 mg/kg. The “binding to Aβ plaques / aggregations” value in the data set on Aβ plaques was “selectively binds to β-amyloid plaques”. On Aβ(1-40) ([3H]CG binding to Aβ(1-40)), the inhibitory constant (Ki) is 18 nM.
Consider `COc1cc(/C=C/c2ccc(O)cc2)ccc1/C=C/c1ccc(O)cc1` [2-CH3O-X:E:B04], for which, in data set [5], the “detection in the lens” value was “could be detected in the supranuclear region of the lens”. In addition, in data set [6], the mean particle size worked out at 1.157 μm, the “particles smaller than 5 μm” value was “greater than 75%” and the “particles smaller than 10 μm” value is 100%. Further, the solubility in water result in data set [3] was “insoluble”. Further, in data set [3] (10 mg/gm of carrier, petrolatum and mineral oil), the “state in carrier at 10 mg/gm” value is “remains primarily in suspension”. The “state in carrier at 0.1%” value in data set [3] (0.1% (1 mg per gm carrier), aqueous formulation with hydroxypropyl methylcellulose) is reported as “remains in solution”. Also, in data set [3] (0.1% (1 mg per gm of carrier), about 85% petrolatum and 15% mineral oil), the “state in carrier at 0.1%” value is given as “remains in solution”. For the same molecule, in data set [4], the “Oral rat LD50” value is around 15000 mg/kg. Also, in the data set on Aβ plaques, the “binding to Aβ plaques / aggregations” value is on record as “selectively binds to Aβ plaques”. In addition, on Aβ(1-40) ([3H]CG binding to Aβ(1-40)), the inhibition constant (Ki) is 27 nM.
With `COc1ccc(/C=C/c2ccc(/C=C/c3ccc(OC)cc3)cc2)cc1` [X:E:B04 bis(4-methoxy)], the inhibitory constant (Ki) at Aβ(1-40) (setting [7]) was above 10000 nM.
As to `Oc1ccc(/C=C/c2ccc(/C=C/c3ccc(O)cc3)c(O)c2)cc1` [2′-HO-X:E:B04], the Ki on Aβ(1-40) ([3H]CG binding to Aβ(1-40)) was 9 nM.
